Source: patent publication US5179088A, “1-Carba(dethia)cephalosporin antibiotics” (Eli Lilly and Company, priority 1990, dated 1993)

Legend:
Assay type in all cases: cell-based
Parameters in all cases: unit not given here
Staphylococcus Aureus = experiment: in vitro antibacterial activity, agar dilution (Staphylococcus aureus)
Procedure: (§1) *minimum inhibitory concentrations were determined by the Agardilution

Staphylococcus Epi = experiment: in vitro antibacterial activity, agar dilution (Staphylococcus epi)
Procedure: as §1

Streptococcus A = experiment: in vitro antibacterial activity, agar dilution (Streptococcus A)
Procedure: as §1

Streptococcus pn = experiment: in vitro antibacterial activity, agar dilution (Streptococcus pn); conditions: strain PARK
Procedure: as §1

Streptococcus D = experiment: in vitro antibacterial activity, agar dilution (Streptococcus D)
Procedure: as §1

H. Influ. = experiment: in vitro antibacterial activity, agar dilution (H. influ.)
Procedure: as §1

E. coli = experiment: in vitro antibacterial activity, agar dilution (E. coli)
Procedure: as §1

Klebsiella = experiment: in vitro antibacterial activity, agar dilution (Klebsiella)
Procedure: as §1

Enterbacter Aerogenes = experiment: in vitro antibacterial activity, agar dilution (Enterobacter aerogenes)
Procedure: as §1

Enterbacter Cloacea = experiment: in vitro antibacterial activity, agar dilution (Enterobacter cloacae)
Procedure: as §1

Salmonella = experiment: in vitro antibacterial activity, agar dilution (Salmonella)
Procedure: as §1

Pseudomonas = experiment: in vitro antibacterial activity, agar dilution (Pseudomonas)
Procedure: as §1

Serratia = experiment: in vitro antibacterial activity, agar dilution (Serratia)
Procedure: as §1

Shig. sonn = experiment: in vitro antibacterial activity, agar dilution (Shig. sonn)
Procedure: as §1

Proteus morg = experiment: in vitro antibacterial activity, agar dilution (Proteus morg)
Procedure: as §1

Proteus incon = experiment: in vitro antibacterial activity, agar dilution (Proteus incon)
Procedure: as §1

Proteus rett = experiment: in vitro antibacterial activity, agar dilution (Proteus rett)
Procedure: as §1

Citro = experiment: in vitro antibacterial activity, agar dilution (Citro)
Procedure: as §1

Acin = experiment: in vitro antibacterial activity, agar dilution (Acin)
Procedure: as §1

CO/N=C(\C(=O)N[C@@H]1C(=O)N2C(C(=O)O)=C(c3csc(-c4ccco4)n3)CC[C@H]12)c1csc(N)n1 [Example 32]
minimum inhibitory concentration (Staphylococcus Aureus; strain S13E): 128
minimum inhibitory concentration (Staphylococcus Aureus; strain S13E, retest): 128
minimum inhibitory concentration (Staphylococcus Aureus; strain V41): 8
minimum inhibitory concentration (Staphylococcus Aureus; strain V41, retest): 4
minimum inhibitory concentration (Staphylococcus Aureus; strain X1.1): 4
minimum inhibitory concentration (Staphylococcus Aureus; strain X1.1, retest): 2
minimum inhibitory concentration (Staphylococcus Aureus; strain X400): > 128
minimum inhibitory concentration (Staphylococcus Aureus; strain X400, retest): > 128
minimum inhibitory concentration (Staphylococcus Epi; strain 222): 4
minimum inhibitory concentration (Staphylococcus Epi; strain 222, retest): 4
minimum inhibitory concentration (Staphylococcus Epi; strain 270): 16
minimum inhibitory concentration (Staphylococcus Epi; strain 270, retest): 8
minimum inhibitory concentration (Streptococcus A; strain C203): .015
minimum inhibitory concentration (Streptococcus A; strain C203, retest): .015
minimum inhibitory concentration (Streptococcus pn): .03
minimum inhibitory concentration (Streptococcus pn; retest): .03
minimum inhibitory concentration (Streptococcus D; strain 2041): 16
minimum inhibitory concentration (Streptococcus D; strain 2041, retest): 16
minimum inhibitory concentration (Streptococcus D; strain X66): > 128
minimum inhibitory concentration (Streptococcus D; strain X66, retest): > 128
minimum inhibitory concentration (H. Influ.; res, strain 76): < .008
minimum inhibitory concentration (H. Influ.; res, strain 76, retest): .015
minimum inhibitory concentration (H. Influ.; sens, strain C.L.): .06
minimum inhibitory concentration (H. Influ.; sens, strain C.L., retest): .03
minimum inhibitory concentration (E. coli; strain EC14): 1
minimum inhibitory concentration (E. coli; strain EC14, retest): .5
minimum inhibitory concentration (E. coli; strain N10): 1
minimum inhibitory concentration (E. coli; strain N10, retest): 1
minimum inhibitory concentration (E. coli; strain TEM): < .008
minimum inhibitory concentration (E. coli; strain TEM, retest): .5
minimum inhibitory concentration (Klebsiella; strain KAE): 1
minimum inhibitory concentration (Klebsiella; strain KAE, retest): 16
minimum inhibitory concentration (Klebsiella; strain X26): 8
minimum inhibitory concentration (Klebsiella; strain X26, retest): < .008
minimum inhibitory concentration (Klebsiella; strain X68): 1
minimum inhibitory concentration (Klebsiella; strain X68, retest): 1
minimum inhibitory concentration (Enterbacter Aerogenes; strain C32): 1
minimum inhibitory concentration (Enterbacter Aerogenes; strain C32, retest): .5
minimum inhibitory concentration (Enterbacter Aerogenes; strain EB17): 1
minimum inhibitory concentration (Enterbacter Aerogenes; strain EB17, retest): 1
minimum inhibitory concentration (Enterbacter Cloacea; strain 265A): 128
minimum inhibitory concentration (Enterbacter Cloacea; strain 265A, retest): 128
minimum inhibitory concentration (Enterbacter Cloacea; strain EB5): 2
minimum inhibitory concentration (Enterbacter Cloacea; strain EB5, retest): 2
minimum inhibitory concentration (Salmonella; strain 1335): 4
minimum inhibitory concentration (Salmonella; strain 1335, retest): 2
minimum inhibitory concentration (Salmonella; strain X514): 1
minimum inhibitory concentration (Salmonella; strain X514, retest): 1
minimum inhibitory concentration (Pseudomonas; strain PS18): > 128
minimum inhibitory concentration (Pseudomonas; strain PS18, retest): > 128
minimum inhibitory concentration (Pseudomonas; strain PS72): > 128
minimum inhibitory concentration (Pseudomonas; strain PS72, retest): > 128
minimum inhibitory concentration (Pseudomonas; strain X239): > 128
minimum inhibitory concentration (Pseudomonas; strain X239, retest): > 128
minimum inhibitory concentration (Pseudomonas; strain X528): > 128
minimum inhibitory concentration (Pseudomonas; strain X528, retest): > 128
minimum inhibitory concentration (Serratia; strain SE3): 16
minimum inhibitory concentration (Serratia; strain SE3, retest): 16
minimum inhibitory concentration (Serratia; strain X99): 14
minimum inhibitory concentration (Serratia; strain X99, retest): 2
minimum inhibitory concentration (Shig. sonn; strain N9): 1
minimum inhibitory concentration (Shig. sonn; strain N9, retest): 1
minimum inhibitory concentration (Proteus morg; strain PR15): 2
minimum inhibitory concentration (Proteus morg; strain PR15, retest): 2
minimum inhibitory concentration (Proteus incon; strain PR33): .5
minimum inhibitory concentration (Proteus incon; strain PR33, retest): .25
minimum inhibitory concentration (Proteus rett; strain C24): .5
minimum inhibitory concentration (Proteus rett; strain C24, retest): .5
minimum inhibitory concentration (Citro; strain CF17): .5
minimum inhibitory concentration (Citro; strain CF17, retest): 1
minimum inhibitory concentration (Acin; strain AC12): 128
minimum inhibitory concentration (Acin; strain AC12, retest): 128

CO/N=C(\C(=O)N[C@@H]1C(=O)N2C(C(=O)O)=C(c3csc(-c4ncc([N+](=O)[O-])s4)n3)CC[C@H]12)c1csc(N)n1 [Example 36]
minimum inhibitory concentration (Staphylococcus Aureus; strain S13E): 32
minimum inhibitory concentration (Staphylococcus Aureus; strain V41): 2
minimum inhibitory concentration (Staphylococcus Aureus; strain X1.1): .25
minimum inhibitory concentration (Staphylococcus Aureus; strain X400): 16
minimum inhibitory concentration (Staphylococcus Epi; strain 222): 2
minimum inhibitory concentration (Staphylococcus Epi; strain 270): 1
minimum inhibitory concentration (Streptococcus A; strain C203): .015
minimum inhibitory concentration (Streptococcus pn): < .008
minimum inhibitory concentration (Streptococcus D; strain 2041): 4
minimum inhibitory concentration (Streptococcus D; strain X66): 64
minimum inhibitory concentration (H. Influ.; res, strain 76): < .008
minimum inhibitory concentration (H. Influ.; sens, strain C.L.): .015
minimum inhibitory concentration (E. coli; strain N10): .25
minimum inhibitory concentration (E. coli; strain TEM): .25
minimum inhibitory concentration (Klebsiella; strain KAE): .5
minimum inhibitory concentration (Klebsiella; strain X26): < .008
minimum inhibitory concentration (Klebsiella; strain X68): .25
minimum inhibitory concentration (Enterbacter Aerogenes; strain C32): .125
minimum inhibitory concentration (Enterbacter Aerogenes; strain EB17): .25
minimum inhibitory concentration (Enterbacter Cloacea; strain 265A): .5
minimum inhibitory concentration (Enterbacter Cloacea; strain EB5): 1
minimum inhibitory concentration (Salmonella; strain 1335): .5
minimum inhibitory concentration (Salmonella; strain X514): .25
minimum inhibitory concentration (Pseudomonas; strain PS18): > 128
minimum inhibitory concentration (Pseudomonas; strain PS72): > 128
minimum inhibitory concentration (Pseudomonas; strain X239): 32
minimum inhibitory concentration (Pseudomonas; strain X528): 32
minimum inhibitory concentration (Serratia; strain SE3): 4
minimum inhibitory concentration (Serratia; strain X99): 1
minimum inhibitory concentration (Shig. sonn; strain N9): .25
minimum inhibitory concentration (Proteus morg; strain PR15): .25
minimum inhibitory concentration (Proteus incon; strain PR33): .25
minimum inhibitory concentration (Proteus rett; strain C24): .06
minimum inhibitory concentration (Citro; strain CF17): .06
minimum inhibitory concentration (Acin; strain AC12): 32
